Data taken from PubChem BioAssay AID330 (DTP/NCI, 2004).
Values joined by “and” are separate entries in the source; they are usually repeats but may differ in a detail not shown here. Identical values can stand only once. Toxic doses and inconclusive results are not listed.

Test system: P388 leukemia ip, CD2F1 mice, survival T/C
Test: NCI In Vivo Anticancer Drug Screen. Data for tumor model P388 Leukemia (intraperitoneal) in CD2F1 (CDF1) mice
Settings: endpoint: median survival time, higher = longer survival
Summary of the method: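 Mice carrying the transplanted tumor received test compound or vehicle. Survival was recorded in each group, and the value is the treated-group measurement divided by that of the vehicle-treated control group.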

[1] = dose: 60.0 mg/kg/injection, schedule: Q01DX005 (ip), vehicle: saline with Tween-80
[2] = dose: 120.0 mg/kg/injection, schedule: Q01DX005 (ip), vehicle: saline with Tween-80
[3] = dose: 50.0 mg/kg/injection, schedule: Q01DX005 (ip), vehicle: saline with Tween-80
[4] = dose: 100.0 mg/kg/injection, schedule: Q01DX005 (ip), vehicle: saline with Tween-80
[5] = dose: 50.0 mg/kg/injection, schedule: Q01DX005 (ip), vehicle: Klucel (hydroxypropylcellulose) (HPC)
[6] = dose: 100.0 mg/kg/injection, schedule: Q01DX005 (ip), vehicle: Klucel (hydroxypropylcellulose) (HPC)
[7] = dose: 200.0 mg/kg/injection, schedule: Q01DX005 (ip), vehicle: Klucel (hydroxypropylcellulose) (HPC)
[8] = dose: 60.0 mg/kg/injection, schedule: Q01DX005 (ip), vehicle: saline
[9] = dose: 120.0 mg/kg/injection, schedule: Q01DX005 (ip), vehicle: saline
[10] = dose: 240.0 mg/kg/injection, schedule: Q01DX005 (ip), vehicle: saline
[11] = dose: 200.0 mg/kg/injection, schedule: Q01DX005 (ip), vehicle: saline with Tween-80
[12] = dose: 25.0 mg/kg/injection, schedule: Q01DX009 (ip), vehicle: Klucel (hydroxypropylcellulose) (HPC)
[13] = dose: 50.0 mg/kg/injection, schedule: Q01DX009 (ip), vehicle: saline
[14] = dose: 100.0 mg/kg/injection, schedule: Q01DX009 (ip), vehicle: Klucel (hydroxypropylcellulose) (HPC)
[15] = dose: 100.0 mg/kg/injection, schedule: Q01DX009 (ip), vehicle: saline
[16] = dose: 200.0 mg/kg/injection, schedule: Q01DX009 (ip), vehicle: Klucel (hydroxypropylcellulose) (HPC)
[17] = dose: 200.0 mg/kg/injection, schedule: Q01DX009 (ip), vehicle: saline

COC(=O)c1nc(N)nc(C(=O)OC)c1C(=O)c1ccc(Cl)cc1Cl
T/C [1]: 95 % of control | T/C [2]: 100 % of control

Cc1cc(NCCCCN2CCOCC2)nc2ccc3ccccc3c12
T/C [3]: 101 % of control | T/C [4]: 105 % of control

CC1=NN(C(=O)c2ccc(Cl)cc2)C(=O)C1N=Nc1ccc(S(=O)(=O)Nc2ccccn2)cc1 (configuration not stated)
T/C [3]: 102 % of control | T/C [4]: 94 % of control

CC(CNC(=O)CCOS(C)(=O)=O)NC(=O)CCOS(C)(=O)=O (configuration not stated)
T/C (dose: 12.5 mg/kg/injection, schedule: Q04DX003 (ip), vehicle: saline with Tween-80): 100 % of control | T/C (dose: 50.0 mg/kg/injection, schedule: Q04DX003 (ip), vehicle: saline with Tween-80): 154 % of control | T/C (dose: 100.0 mg/kg/injection, schedule: Q01DX009 (ip), vehicle: saline with Tween-80): 154 % of control | T/C (dose: 100.0 mg/kg/injection, schedule: Q04DX003 (ip), vehicle: saline with Tween-80): 150 % of control | T/C (dose: 200.0 mg/kg/injection, schedule: Q01DX009 (ip), vehicle: saline with Tween-80): 177 % of control | T/C (dose: 200.0 mg/kg/injection, schedule: Q04DX003 (ip), vehicle: saline with Tween-80): 175 % of control | T/C (dose: 400.0 mg/kg/injection, schedule: Q01DX009 (ip), vehicle: saline with Tween-80): 90 % of control | T/C (dose: 400.0 mg/kg/injection, schedule: Q04DX003 (ip), vehicle: saline with Tween-80): 241 % of control

COC(=O)C(=O)C(C(=O)c1ccc(F)cc1)c1nc2n(c1O)C(=N)N=N2 (configuration not stated)
T/C [1]: 102 % of control | T/C [2]: 86 % of control

CC(Cc1cccc2ccccc12)C(N)=O (configuration not stated)
T/C [5]: 100 % of control | T/C [6]: 99 % of control | T/C [7]: 99 % of control

CC(=O)OC1=C(C)C2=C3OC(=O)C(C)=C3CC[C@@]2(C)[C@@H](Cl)[C@@H]1Cl
T/C (dose: 25.0 mg/kg/injection, schedule: Q01DX005 (ip), vehicle: Klucel (hydroxypropylcellulose) (HPC)): 104 % of control and 113 % of control | T/C [5]: 104 % of control and 108 % of control and 111 % of control | T/C [6]: 114 % of control and 117 % of control and 121 % of control | T/C [7]: 108 % of control and 119 % of control and 120 % of control

CN(C=O)/C=C1\CC(OO)NC1=O (configuration not stated)
T/C [8]: 100 % of control | T/C [9]: 101 % of control | T/C [10]: 103 % of control

c1ccc(C[N+]23CCN(CC2)CC3)cc1
T/C (dose: 12.5 mg/kg/injection, schedule: Q04DX003 (ip), vehicle: saline): 109 % of control | T/C (dose: 25.0 mg/kg/injection, schedule: Q04DX003 (ip), vehicle: saline): 95 % of control | T/C (dose: 50.0 mg/kg/injection, schedule: Q04DX003 (ip), vehicle: saline): 90 % of control

CCOc1ccc(/C=C/S(=O)(=O)/C=C\c2ccccc2)c(OC)c1
T/C [3]: 98 % of control | T/C [4]: 92 % of control | T/C [11]: 87 % of control

CCn1c(Cl)c(/C=C(/NC(=O)c2ccccc2)C(=O)O)c2ccccc21
T/C (dose: 100.0 mg/kg/injection, schedule: Q01DX001 (ip), vehicle: Klucel (hydroxypropylcellulose) (HPC)): 100 % of control | T/C (dose: 200.0 mg/kg/injection, schedule: Q01DX001 (ip), vehicle: Klucel (hydroxypropylcellulose) (HPC)): 94 % of control | T/C (dose: 400.0 mg/kg/injection, schedule: Q01DX001 (ip), vehicle: Klucel (hydroxypropylcellulose) (HPC)): 94 % of control

CC(=O)Nc1ccc[nH]c1=O
T/C [12]: 108 % of control and 96 % of control | T/C (dose: 25.0 mg/kg/injection, schedule: Q01DX009 (ip), vehicle: saline): 99 % of control and 110 % of control | T/C (dose: 50.0 mg/kg/injection, schedule: Q01DX009 (ip), vehicle: Klucel (hydroxypropylcellulose) (HPC)): 99 % of control and 104 % of control | T/C [13]: 108 % of control and 92 % of control | T/C [14]: 99 % of control and 104 % of control | T/C [15]: 103 % of control and 117 % of control | T/C [16]: 101 % of control and 96 % of control | T/C [17]: 101 % of control and 103 % of control | T/C (dose: 400.0 mg/kg/injection, schedule: Q01DX009 (ip), vehicle: Klucel (hydroxypropylcellulose) (HPC)): 109 % of control and 96 % of control | T/C (dose: 400.0 mg/kg/injection, schedule: Q01DX009 (ip), vehicle: saline): 104 % of control and 108 % of control

Nc1ccc(-c2nc3ccccc3c(=O)[nH]2)cc1
T/C (dose: 12.5 mg/kg/injection, schedule: Q01DX009 (ip), vehicle: Klucel (hydroxypropylcellulose) (HPC)): 86 % of control | T/C [12]: 100 % of control and 108 % of control and 92 % of control | T/C [14]: 122 % of control and 90 % of control and 94 % of control | T/C [16]: 111 % of control

O=[N+]([O-])c1cn(CCNc2c3ccccc3nc3ccccc23)cn1
T/C [1]: 112 % of control

C/C(C/C(C)=N/C(N)=S)=N\C(N)=S
T/C [8]: 100 % of control | T/C [9]: 95 % of control | T/C [10]: 100 % of control

Cc1ccc2nc3[nH]c(=O)[nH]c(=O)c3c(C(N)=O)c2c1
T/C [5]: 100 % of control | T/C [6]: 94 % of control | T/C [7]: 94 % of control

Cc1cnc(NCCCCNc2ncc(C)c(-c3ccccc3O)n2)nc1-c1ccccc1O
T/C [5]: 101 % of control | T/C [6]: 101 % of control | T/C [7]: 89 % of control

CCCCCCCCCCCCCC#CC(=O)OC
T/C [13]: 104 % of control | T/C [15]: 106 % of control | T/C [17]: 106 % of control

CN1c2cc3ccccc3cc2N(C)c2cc3ccccc3cc21
T/C [5]: 90 % of control | T/C [7]: 88 % of control

CO/N=C1/C=CC(Cl)=C/C1=C(\c1ccccc1Cl)C(C#N)c1ccccc1Cl (configuration not stated)
T/C (dose: 100.0 mg/kg/injection, schedule: Q01DX001 (ip), vehicle: saline with Tween-80): 94 % of control | T/C (dose: 200.0 mg/kg/injection, schedule: Q01DX001 (ip), vehicle: saline with Tween-80): 102 % of control | T/C (dose: 400.0 mg/kg/injection, schedule: Q01DX001 (ip), vehicle: saline with Tween-80): 92 % of control

COc1ccc2c(c1O)N(C(C)=O)C1C3C(O)OCC=C4CN5CCC21C5CC43 (configuration not stated)
T/C (dose: 4.5 mg/kg/injection, schedule: Q01DX009 (ip), vehicle: Klucel (hydroxypropylcellulose) (HPC)): 100 % of control | T/C (dose: 5.0 mg/kg/injection, schedule: Q01DX009 (ip), vehicle: saline): 116 % of control | T/C (dose: 9.0 mg/kg/injection, schedule: Q01DX009 (ip), vehicle: Klucel (hydroxypropylcellulose) (HPC)): 103 % of control | T/C (dose: 10.0 mg/kg/injection, schedule: Q01DX009 (ip), vehicle: saline): 111 % of control | T/C (dose: 18.0 mg/kg/injection, schedule: Q01DX009 (ip), vehicle: Klucel (hydroxypropylcellulose) (HPC)): 101 % of control | T/C (dose: 20.0 mg/kg/injection, schedule: Q01DX009 (ip), vehicle: saline): 118 % of control | T/C (dose: 36.0 mg/kg/injection, schedule: Q01DX009 (ip), vehicle: Klucel (hydroxypropylcellulose) (HPC)): 110 % of control | T/C (dose: 72.0 mg/kg/injection, schedule: Q01DX009 (ip), vehicle: Klucel (hydroxypropylcellulose) (HPC)): 104 % of control

COc1ccc(Cc2cc3c(cc2OC(C)=O)OCO3)cc1
T/C [3]: 100 % of control | T/C [4]: 100 % of control | T/C [11]: 99 % of control

CCOC(=O)c1c(-c2ccccc2)csc1NC(=O)CN1CCOCC1
T/C (dose: 12.5 mg/kg/injection, schedule: Q01DX005 (ip), vehicle: saline with Tween-80): 98 % of control | T/C (dose: 25.0 mg/kg/injection, schedule: Q01DX005 (ip), vehicle: saline with Tween-80): 90 % of control | T/C [3]: 86 % of control | T/C [11]: 88 % of control

CC(C(=O)c1ccc(O)cc1)(c1nc2nnc(N)n2[nH]c1=O)c1nc2nnc(N)n2[nH]c1=O
T/C [8]: 98 % of control | T/C [9]: 98 % of control | T/C [10]: 97 % of control

CCO/C(CC#N)=C(/C#N)C(=O)Nc1ccc(OC)cc1
T/C [1]: 95 % of control | T/C [2]: 93 % of control | T/C (dose: 240.0 mg/kg/injection, schedule: Q01DX005 (ip), vehicle: saline with Tween-80): 89 % of control

C1OC1CN1CCN(CC2CO2)CC1 (configuration not stated)
T/C (dose: 4.0 mg/kg/injection, schedule: Q01DX009 (ip), vehicle: saline): 124 % of control | T/C (dose: 8.0 mg/kg/injection, schedule: Q01DX009 (ip), vehicle: saline): 150 % of control | T/C (dose: 16.0 mg/kg/injection, schedule: Q01DX009 (ip), vehicle: saline): 196 % of control

OC1CC2OC2C1O (configuration not stated)
T/C [8]: 103 % of control | T/C [9]: 111 % of control | T/C [10]: 111 % of control

COC(=O)C1CC(NO)CN1S(=O)(=O)c1ccc(C)cc1 (configuration not stated)
T/C (dose: 100.0 mg/kg/injection, schedule: Q04DX002 (ip), vehicle: saline with Tween-80): 99 % of control | T/C (dose: 200.0 mg/kg/injection, schedule: Q04DX002 (ip), vehicle: saline with Tween-80): 95 % of control | T/C (dose: 400.0 mg/kg/injection, schedule: Q04DX002 (ip), vehicle: saline with Tween-80): 93 % of control
